Results from patent US10670605B2, “Cysteine reactive probes and uses thereof” (The Scripps Research Institute, priority 2015, dated 2020).
Blank lines part the entries; values can stand above or below the compound they belong to.

How the values were obtained:
DDX59 C453 (Q5T1V6) = target: T1, DDX59 C453 (Q5T1V6) (Homo sapiens, UniProt Q5T1V6); assay: Competitive isoTOP-ABPP, cell lysates; type: binding; conditions: for R value (DMSO/fragment) / isoTOP-ABPP ratio, Q5T1V6_C453: 500 μM; for isoTOP-ABPP reactivity profile ratio, Q5T1V6_C453: 500 μm
T1 sequence (Q5T1V6 1-619): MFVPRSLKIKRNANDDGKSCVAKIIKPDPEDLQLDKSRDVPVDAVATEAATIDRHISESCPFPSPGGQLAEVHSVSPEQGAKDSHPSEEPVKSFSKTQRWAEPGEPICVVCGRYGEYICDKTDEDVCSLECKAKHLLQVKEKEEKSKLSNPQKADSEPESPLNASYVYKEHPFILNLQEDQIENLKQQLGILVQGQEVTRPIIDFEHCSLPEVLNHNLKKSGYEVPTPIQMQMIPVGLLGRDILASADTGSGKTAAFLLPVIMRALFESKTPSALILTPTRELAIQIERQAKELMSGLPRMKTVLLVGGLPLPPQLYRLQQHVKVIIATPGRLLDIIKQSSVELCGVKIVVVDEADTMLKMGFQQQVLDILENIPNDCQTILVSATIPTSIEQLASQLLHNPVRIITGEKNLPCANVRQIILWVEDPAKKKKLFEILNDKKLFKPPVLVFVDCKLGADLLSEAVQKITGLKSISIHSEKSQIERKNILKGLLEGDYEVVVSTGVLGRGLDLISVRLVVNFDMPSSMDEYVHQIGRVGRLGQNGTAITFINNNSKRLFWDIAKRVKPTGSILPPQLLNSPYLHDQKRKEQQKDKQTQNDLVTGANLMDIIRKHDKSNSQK

O00541_C272 = O00541_C272 (Homo sapiens, UniProt O00541); assay: Competitive isoTOP-ABPP, cell lysates; type: binding
[1] = target: cysteines in MDA-MB-231 and Ramos cells (Homo sapiens, UniProt Q96N67); assay: Competitive isoTOP-ABPP in situ (fragment-treated cells); type: cell-based
CASP2 C370 (P42575) = target: T2, CASP2 C370 (P42575) (Homo sapiens, UniProt P42575); assay: Competitive isoTOP-ABPP, cell lysates; type: binding; conditions: for isoTOP-ABPP reactivity ratio, P42575_C370: 500 μm, in-vitro_ramos
T2 sequence (P42575 1-452): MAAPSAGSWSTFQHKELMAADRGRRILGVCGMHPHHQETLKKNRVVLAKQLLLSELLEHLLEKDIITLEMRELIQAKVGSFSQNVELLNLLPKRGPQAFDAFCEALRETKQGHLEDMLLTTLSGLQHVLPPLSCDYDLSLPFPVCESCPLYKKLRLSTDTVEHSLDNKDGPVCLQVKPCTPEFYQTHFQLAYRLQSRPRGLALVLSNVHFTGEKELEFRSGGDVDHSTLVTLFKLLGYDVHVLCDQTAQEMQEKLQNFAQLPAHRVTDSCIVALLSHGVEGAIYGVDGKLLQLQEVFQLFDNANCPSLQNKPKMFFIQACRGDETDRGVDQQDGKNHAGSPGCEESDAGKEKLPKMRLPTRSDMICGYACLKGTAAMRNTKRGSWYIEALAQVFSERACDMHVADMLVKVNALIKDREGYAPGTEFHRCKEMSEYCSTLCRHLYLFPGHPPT

O114933_C98 = O114933_C98 (Homo sapiens, UniProt O14933); assay: Competitive isoTOP-ABPP, cell lysates; type: binding; conditions: 500 μm
[2] = target: T3, cysteines in MDA-MB-231 and Ramos cells (Homo sapiens, UniProt O14929); assay: Competitive isoTOP-ABPP in situ (fragment-treated cells); type: cell-based
T3 sequence (O14929 1-419): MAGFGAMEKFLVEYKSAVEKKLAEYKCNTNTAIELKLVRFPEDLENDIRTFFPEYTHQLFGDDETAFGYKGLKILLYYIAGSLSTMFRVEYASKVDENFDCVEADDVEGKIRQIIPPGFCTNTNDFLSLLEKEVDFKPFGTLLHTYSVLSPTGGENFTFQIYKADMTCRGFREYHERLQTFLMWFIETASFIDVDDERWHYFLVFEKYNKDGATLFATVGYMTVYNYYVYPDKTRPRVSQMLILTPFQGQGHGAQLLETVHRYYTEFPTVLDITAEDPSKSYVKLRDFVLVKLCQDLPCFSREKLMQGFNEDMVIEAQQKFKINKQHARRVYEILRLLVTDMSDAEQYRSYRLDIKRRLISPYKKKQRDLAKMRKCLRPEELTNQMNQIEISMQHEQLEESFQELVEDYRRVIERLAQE

Chain of O114933_C98 (O14933 whole entry, the tested form may be a part): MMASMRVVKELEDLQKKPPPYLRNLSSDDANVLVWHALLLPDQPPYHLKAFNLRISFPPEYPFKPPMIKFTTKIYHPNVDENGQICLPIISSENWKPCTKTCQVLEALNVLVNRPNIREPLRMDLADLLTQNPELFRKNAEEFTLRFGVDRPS
Chain of cysteines in MDA-MB-231 and Ramos cells (Homo sapiens, UniProt Q96N67) (Q96N67 whole entry, the tested form may be a part): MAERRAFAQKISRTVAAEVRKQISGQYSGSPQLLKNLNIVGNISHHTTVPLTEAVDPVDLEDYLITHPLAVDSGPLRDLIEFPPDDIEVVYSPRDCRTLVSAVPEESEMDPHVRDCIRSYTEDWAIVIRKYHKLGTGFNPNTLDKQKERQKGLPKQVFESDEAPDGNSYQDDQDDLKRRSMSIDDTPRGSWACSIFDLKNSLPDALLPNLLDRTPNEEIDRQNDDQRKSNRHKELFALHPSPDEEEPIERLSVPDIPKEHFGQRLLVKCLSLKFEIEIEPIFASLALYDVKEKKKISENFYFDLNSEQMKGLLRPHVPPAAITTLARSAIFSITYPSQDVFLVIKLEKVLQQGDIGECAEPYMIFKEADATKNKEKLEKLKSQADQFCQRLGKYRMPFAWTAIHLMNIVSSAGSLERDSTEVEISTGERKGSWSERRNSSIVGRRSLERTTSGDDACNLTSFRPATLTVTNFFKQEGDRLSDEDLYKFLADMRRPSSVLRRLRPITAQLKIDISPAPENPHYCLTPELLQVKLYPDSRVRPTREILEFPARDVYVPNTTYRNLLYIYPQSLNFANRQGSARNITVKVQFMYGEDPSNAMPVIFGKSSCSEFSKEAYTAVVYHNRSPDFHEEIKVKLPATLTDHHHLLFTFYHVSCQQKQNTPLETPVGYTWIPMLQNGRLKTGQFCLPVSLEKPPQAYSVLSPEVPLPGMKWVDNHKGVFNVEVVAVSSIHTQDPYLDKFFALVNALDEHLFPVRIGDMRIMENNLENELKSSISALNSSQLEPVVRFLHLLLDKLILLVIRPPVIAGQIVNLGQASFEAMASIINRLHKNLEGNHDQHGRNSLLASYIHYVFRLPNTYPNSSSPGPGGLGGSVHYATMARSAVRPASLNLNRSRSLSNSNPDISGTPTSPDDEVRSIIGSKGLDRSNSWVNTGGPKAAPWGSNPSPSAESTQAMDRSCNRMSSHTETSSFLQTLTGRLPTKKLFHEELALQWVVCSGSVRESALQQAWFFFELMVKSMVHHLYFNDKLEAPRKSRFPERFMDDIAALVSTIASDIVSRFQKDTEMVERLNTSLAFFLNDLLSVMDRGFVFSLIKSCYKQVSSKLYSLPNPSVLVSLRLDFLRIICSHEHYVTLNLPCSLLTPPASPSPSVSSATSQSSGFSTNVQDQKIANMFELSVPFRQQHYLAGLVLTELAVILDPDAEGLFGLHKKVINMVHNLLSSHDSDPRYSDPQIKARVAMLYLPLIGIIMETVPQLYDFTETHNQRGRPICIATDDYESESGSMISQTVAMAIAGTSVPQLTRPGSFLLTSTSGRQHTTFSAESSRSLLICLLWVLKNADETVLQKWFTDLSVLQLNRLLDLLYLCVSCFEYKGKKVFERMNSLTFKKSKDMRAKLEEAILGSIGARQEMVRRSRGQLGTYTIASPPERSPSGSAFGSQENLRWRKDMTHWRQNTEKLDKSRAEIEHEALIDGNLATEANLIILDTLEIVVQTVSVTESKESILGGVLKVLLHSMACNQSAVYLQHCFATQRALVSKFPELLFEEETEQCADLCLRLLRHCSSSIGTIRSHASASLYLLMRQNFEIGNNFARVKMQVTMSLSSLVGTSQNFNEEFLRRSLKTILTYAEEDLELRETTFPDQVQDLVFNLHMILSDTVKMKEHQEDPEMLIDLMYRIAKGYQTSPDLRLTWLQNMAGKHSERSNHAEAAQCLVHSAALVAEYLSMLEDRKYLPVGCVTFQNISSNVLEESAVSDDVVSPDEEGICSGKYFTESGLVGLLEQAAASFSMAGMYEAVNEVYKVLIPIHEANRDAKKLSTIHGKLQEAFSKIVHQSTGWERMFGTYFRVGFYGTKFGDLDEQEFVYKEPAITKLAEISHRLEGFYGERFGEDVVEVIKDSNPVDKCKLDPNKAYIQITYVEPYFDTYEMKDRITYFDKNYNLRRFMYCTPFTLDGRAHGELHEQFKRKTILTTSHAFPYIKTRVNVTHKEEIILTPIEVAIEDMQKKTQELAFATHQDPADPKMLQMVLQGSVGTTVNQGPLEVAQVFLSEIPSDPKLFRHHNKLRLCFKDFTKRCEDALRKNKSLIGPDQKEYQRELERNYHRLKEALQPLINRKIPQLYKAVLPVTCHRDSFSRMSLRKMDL
Chain of O00541_C272 (O00541 whole entry, looked up, the tested form may be a part): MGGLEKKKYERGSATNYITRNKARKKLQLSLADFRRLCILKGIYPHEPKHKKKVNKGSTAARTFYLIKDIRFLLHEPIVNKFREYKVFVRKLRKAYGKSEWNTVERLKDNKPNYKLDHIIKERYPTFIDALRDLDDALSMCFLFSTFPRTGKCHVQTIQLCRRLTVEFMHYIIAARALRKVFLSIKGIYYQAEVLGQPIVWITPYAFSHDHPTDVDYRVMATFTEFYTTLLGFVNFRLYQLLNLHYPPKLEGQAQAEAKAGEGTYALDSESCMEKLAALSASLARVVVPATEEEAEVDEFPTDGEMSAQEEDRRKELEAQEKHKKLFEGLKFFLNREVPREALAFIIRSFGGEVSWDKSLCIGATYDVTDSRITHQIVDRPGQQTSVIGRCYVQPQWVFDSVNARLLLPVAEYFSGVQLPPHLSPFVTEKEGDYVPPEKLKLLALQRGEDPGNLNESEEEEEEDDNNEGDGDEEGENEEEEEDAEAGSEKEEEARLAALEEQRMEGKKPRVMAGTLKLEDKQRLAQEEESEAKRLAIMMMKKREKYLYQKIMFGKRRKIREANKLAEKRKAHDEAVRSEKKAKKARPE

R value (DMSO/fragment) (DDX59 C453 (Q5T1V6); in vitro, MDA-MB-231): 20.0 | R value (DMSO/fragment) (DDX59 C453 (Q5T1V6); invitro, ramos): 20.0
SMILES: COc1ccc2c(c1)CCCN2C(=O)CCl [compound 2]

isoTOP-ABPP ratio (reactivity profile), O00541_C272 (O00541_C272; 500 μm in-vitro ramos_231): 1.1 | isoTOP-ABPP ratio Q96N67_C2125 ([1]; 200 μM, insitu, 231): 0.9 | isoTOP-ABPP ratio (reactivity profile), P42575_C370 (CASP2 C370 (P42575); 500 μm in-vitro ramos_231): 0.9 | isoTOP-ABPP ratio (reactivity profile), Q5T1V6_C453 (DDX59 C453 (Q5T1V6); 500 μm in-vitro ramos_231): 1.0
SMILES: CC(C)CCOCCNC(=O)CCl [compound 27]

SMILES: O=C(CCl)N1CCOCC1 [compound 22]
isoTOP-ABPP ratio (reactivity profile), O00541_C272 (O00541_C272; 500 μm in-vitro ramos_231): 1.6

R value (DMSO/fragment) (CASP2 C370 (P42575); 500 μM, invitro, ramos): 7.4 | R value (DMSO/fragment) (DDX59 C453 (Q5T1V6); in vitro, MDA-MB-231): 20.0
SMILES: O=C(CCl)Nc1cc(C(F)(F)F)cc(C(F)(F)F)c1 [compound 3]

isoTOP-ABPP reactivity ratio, O114933_C98 (O114933_C98; in-vitro_ramos_231): 0.8
SMILES: O=C(CCl)N(Cc1ccc(F)cc1)C12CC3CC(CC(C3)C1)C2 [compound 34]

isoTOP-ABPP ratio O14929_C101 ([2]; 200 μM, insitu, 231): 20.0
SMILES: O=C(CCl)NC(=O)NC12CC3CC(CC(C3)C1)C2 [compound 12]

isoTOP-ABPP ratio (reactivity profile), O00541_C272 (O00541_C272; 500 μm in-vitro ramos): 5.5 | isoTOP-ABPP ratio O14929_C101 ([2]; 200 μM, insitu, 231): 1.2
SMILES: O=C(CCl)NC12CC3CC(CC(C3)C1)C2 [compound 21]

isoTOP-ABPP ratio O14929_C101 ([2]; 200 μM, insitu, 231): 20.0 | isoTOP-ABPP ratio, P42575_C370 (CASP2 C370 (P42575); 500 μM, invitro, ramos): 1.2
SMILES: O=C(CCl)N1CCN(S(=O)(=O)c2ccccc2F)CC1 [compound 10]

isoTOP-ABPP ratio Q96N67_C2125 ([1]; 200 μM, insitu, 231): 0.7 | isoTOP-ABPP ratio O14929_C101 ([2]; 200 μM, insitu, 231): 0.6 | isoTOP-ABPP reactivity ratio, P42575_C370 (CASP2 C370 (P42575)): 1.4 | isoTOP-ABPP reactivity ratio, O114933_C98 (O114933_C98; in-vitro_ramos): 1.1 | isoTOP-ABPP reactivity ratio, O114933_C98 (O114933_C98; in-vitro_ramos_231): 1.2
SMILES: Cc1ccc(C=C(C#N)C(=O)NCCN2CCOCC2)cc1 [compound 41]

isoTOP-ABPP reactivity ratio, O114933_C98 (O114933_C98; in-vitro_ramos): 4.6 | isoTOP-ABPP reactivity ratio, O114933_C98 (O114933_C98; in-vitro_ramos_231): 13.8
SMILES: CC(C)(C)c1cc(NC(=O)CCl)on1 [compound 32]

isoTOP-ABPP reactivity profile ratio, Q5T1V6_C453 (DDX59 C453 (Q5T1V6); in-vitro_ramos): 1.0
SMILES: N#CC(=Cc1ccc(-c2ccccc2Cl)o1)C(N)=O [compound 42]

isoTOP-ABPP ratio O14929_C101 ([2]; 100 μM in situ 231): 0.8 | isoTOP-ABPP ratio, P42575_C370 (CASP2 C370 (P42575); 500 μM, invitro, ramos): 6.0 | isoTOP-ABPP ratio, Q5T1V6_C453 (DDX59 C453 (Q5T1V6); invitro, 231): 20.0
SMILES: Cn1cc(S(=O)(=O)N2CCOCC2)cc1C(=O)NC(=O)CCl [compound 11]

isoTOP-ABPP ratio (reactivity profile), O00541_C272 (O00541_C272; 500 μm in-vitro ramos): 2.0 | isoTOP-ABPP ratio (reactivity profile), P42575_C370 (CASP2 C370 (P42575); 500 μm in-vitro ramos): 2.1
SMILES: N#C/C(=C\c1cc(C(F)(F)F)cc(C(F)(F)F)c1)C(N)=O [compound 23]

isoTOP-ABPP ratio O14929_C101 ([2]; 200 μM, insitu, 231): 20.0
SMILES: CC1CCc2ccccc2N1C(=O)CCl (centres unmarked) [compound 45]

isoTOP-ABPP reactivity profile ratio, Q5T1V6_C453 (DDX59 C453 (Q5T1V6); in-vitro_ramos): 1.8
SMILES: O=C(CCl)Nc1cccc2ncccc12 [compound 51]

isoTOP-ABPP ratio Q96N67_C2125 ([1]; 200 μM, insitu, 231): 1.5 | isoTOP-ABPP ratio O14929_C101 ([2]; 200 μM, insitu, 231): 1.1 | isoTOP-ABPP reactivity ratio, O114933_C98 (O114933_C98; in-vitro_ramos): 1.7 | isoTOP-ABPP reactivity ratio, O114933_C98 (O114933_C98; in-vitro_ramos_231): 1.6
SMILES: C=CC(=O)Nc1cc(F)c(N2CCN(C(=O)OC(C)(C)C)CC2)c(F)c1 [compound 38]

isoTOP-ABPP reactivity Q96N67_C2125 DOCK7 ([1]; 200 μM, insitu, 231): 5.4
SMILES: COc1cc2c(cc1OC)CN(C(=O)CCl)CC2 [compound 8]

isoTOP-ABPP reactivity profile ratio, Q5T1V6_C453 (DDX59 C453 (Q5T1V6); in-vitro_ramos_231): 20.0
SMILES: COc1cc(NC(=O)CCl)cc(OC)c1 [compound 43]

isoTOP-ABPP ratio (reactivity profile), O00541_C272 (O00541_C272; 500 μm in-vitro ramos): 2.6 | isoTOP-ABPP ratio (reactivity profile), P42575_C370 (CASP2 C370 (P42575); 500 μm in-vitro ramos): 2.2 | isoTOP-ABPP ratio (reactivity profile), Q5T1V6_C453 (DDX59 C453 (Q5T1V6); 500 μm in-vitro ramos): 1.7
SMILES: CC(Br)C(=O)Nc1cc(C(F)(F)F)cc(C(F)(F)F)c1 (centres unmarked) [compound 24]

isoTOP-ABPP ratio Q96N67_C2125 ([1]; 200 μM, insitu, 231): 0.8
SMILES: C=CC(=O)N(Cc1cccnc1)c1cc(C(F)(F)F)cc(C(F)(F)F)c1 [compound 31]

isoTOP-ABPP ratio (reactivity profile), Q5T1V6_C453 (DDX59 C453 (Q5T1V6); 500 μm in-vitro ramos_231): 0.9
SMILES: CC(Cl)C(=O)Nc1cc(C(F)(F)F)cc(C(F)(F)F)c1 (centres unmarked) [compound 25]

isoTOP-ABPP reactivity ratio, P42575_C370 (CASP2 C370 (P42575)): 4.1 | isoTOP-ABPP reactivity ratio, O114933_C98 (O114933_C98; in-vitro_ramos): 2.1
SMILES: CCN(CC)c1ccc(S(N)(=O)=O)cc1NC(=O)CCl [compound 30]

isoTOP-ABPP ratio O14929_C101 ([2]; 200 μM, insitu, 231): 0.9 | isoTOP-ABPP ratio O14929_C101 ([2]; 200 μM, insitu, ramos): 1.2 | isoTOP-ABPP ratio, Q5T1V6_C453 (DDX59 C453 (Q5T1V6); invitro, ramos): 1.4
SMILES: O=C(CCl)NCCc1c[nH]c2ccccc12 [compound 13]

isoTOP-ABPP reactivity O14929_C101 HAT1 ([2]; 200 μM, insitu, 231): 9.0
SMILES: O=C(CCl)N1CCC(Cc2ccccc2)CC1 [compound 9]

isoTOP-ABPP reactivity ratio, P42575_C370 (CASP2 C370 (P42575)): 0.7
SMILES: C=CC(=O)N1CCC(c2noc3ccc(F)cc23)CC1 [compound 37]

isoTOP-ABPP reactivity Q96N67_C2125 DOCK7 ([1]; 100 μM in situ 231): 4.1
SMILES: COc1ccc(C2CC(c3cccs3)=NN2C(=O)CCl)cc1 (centres unmarked) [compound 4]

isoTOP-ABPP ratio (reactivity profile), O00541_C272 (O00541_C272; 500 μm in-vitro ramos_231): 0.9 | isoTOP-ABPP ratio O14929_C101 ([2]; 200 μM, insitu, ramos): 1.0
SMILES: O=C(CCl)N1CCN(CC(=O)N2CCOCC2)CC1 [compound 29]

isoTOP-ABPP reactivity ratio, P42575_C370 (CASP2 C370 (P42575)): 2.7 | isoTOP-ABPP reactivity ratio, O114933_C98 (O114933_C98; in-vitro_ramos): 1.3
SMILES: C=CC(=O)Nc1cc(C)c(Br)cc1C [compound 40]
